Results as given in patent publication US20200297760A1, “COMPOSITIONS AND METHODS FOR REDUCING IMMUNE RESPONSES AGAINST CHIMERIC ANTIGEN RECEPTORS” (Juno Therapeutics, Inc., priority 2015, published 2020).
No end group written: not given here.

Tests used:
Test in all cases: REVEAL Epitope Discovery System in vitro MHC-peptide binding assay
HLA-A*02:01 = HLA-A*02:01 (Homo sapiens, UniProt P04439, D140Y/D185E/D98H/E176V/E277Q/G131W/G231S/I119V/I121R/I166T/I218V/L300P/L318F/N151K/N90K/P208A/P217A/Q86G/Q94H/R138H/R169H/T345S); details: binding normalized to positive control peptide set at 100%, greater than 50 considered good or high affinity binding
Method: (§1) Actual binding affinities for certain HLA class I alleles (A*02:01, A*03:01, A*11:01, and B*08:01) were assessed in vitro for exemplary overlapping 9 amino acid peptide sequences within a portion of the 26 amino acid junction region spanning the CD28 and 4-1BB junction. Specifically, assessment was of a series of overlapping 9-mer peptides derived from the sequence […] (set forth in SEQ ID NO: 7), which contains a portion of the CD28 transmembrane domain and 4-1BB costimulatory domain spanning the junction between the domains (bond joining the two amino acids noted in underline). In addition, a series of overlapping 9-mer peptides of each of a number of different variants of this portion also were assessed, each variant containing a mutation or mutations in this region as described in Example 2.
(§2) The various 9-mer overlapping peptides were synthesized and their purity tested by MALDI-TOF Mass Spectrometry. The synthetic peptides were then incubated with recombinant MHC molecules to assess binding properties using the REVEAL Epitope Discovery System, which is a high-throughput binding assay that measures the degree to which each peptide is able to stabilize a ternary MHC-peptide complex (Prolmmune, Oxford, United Kingdom). Each peptide was separately tested for this ability with respect to each of the HLA class I alleles, normalized to the degree observed for a positive control (known T cell epitope for the relevant allele). The results are reported as a score, in which the binding was normalized to the positive control peptide set at 100%. In this analysis, a score of greater than 50 generally was considered to represent good or high affinity binding.

HLA-A*03:01 = HLA-A*03:01 (Homo sapiens, UniProt P04439); details: REVEAL score, binding normalized to positive control peptide set at 100%; greater than 50 considered good or high affinity binding
Method: as §1, §2

HLA-A*11:01 = HLA-A*11:01 (Homo sapiens, UniProt P04439, A114D/D185E/E176A/F33Y/L180Q/S129P/T187R); details: binding normalized to positive control peptide set at 100%, >50 considered good or high affinity binding
Method: as §1, §2

HLA-B*08:01 = HLA-B*08:01 (Homo sapiens, UniProt P01889, A93T/A95T/D138N/E176V/E187T/K202T/Q94N/R180D/S35A/V36M/Y33D/Y91F); details: binding normalized to positive control peptide set at 100%, >50 considered good or high affinity binding
Method: as §1, §2

| Compound | A*02:01 In Vitro Score (HLA-A*02:01) | A*03:01 In Vitro (HLA-A*03:01) | A*11:01 In Vitro Score (HLA-A*11:01) | B*08:01 In Vitro Score (HLA-B*08:01) |
| --- | --- | --- | --- | --- |
| CC(C)[C@H](NC(=O)[C@H](Cc1c[nH]c2ccccc12)NC(=O)[C@@H](N)Cc1ccccc1)C(=O)N[C@@H](CCCCN)C(=O)N[C@@H](CCCNC(=N)N)C(=O)NCC(=O)N[C@@H](CC(N)=O)C(=O)N[C@@H](CCCCN)C(=O)N[C@@H](CCCCN)C(=O)O | 8.70 | 3.60 | 7.30 | 0.10 |
| VAFIIFWVS | 70.60 | 0.70 | 25.10 | 0.10 |
| FWVKRGSKK | 1.90 | 5.90 | 5.60 | 0.10 |
| FWVKRGRKK | 3.50 | 2.20 | 6.50 | 0.00 |
| IFWVLRGRK | 2.90 | 19.50 | 29.30 | 0.00 |
| IIFWVKRGL | 82.20 | 15.90 | 32.40 | 1.70 |
| WVKRGAKKL | 4.70 | 4.10 | 4.60 | 34.10 |
| IFWVKRGAK | 13.80 | 22.00 | 69.70 | 2.20 |
| FIIFWVKRG | 10.10 | 1.40 | 0.40 | 0.10 |
| CC(C)C[C@H](NC(=O)[C@H](CCCCN)NC(=O)[C@H](CCCCN)NC(=O)[C@H](CCCNC(=N)N)NC(=O)CNC(=O)[C@H](CCCNC(=N)N)NC(=O)[C@H](CCC(N)=O)NC(=O)[C@@H](NC(=O)[C@@H](N)Cc1c[nH]c2ccccc12)C(C)C)C(=O)O | 8.10 | 4.90 | 12.80 | 45.10 |
| AFIIFWVLR | 5.70 | 0.30 | 17.20 | 0.20 |
| CC[C@H](C)[C@H](N)C(=O)N[C@@H](Cc1ccccc1)C(=O)N[C@@H](Cc1c[nH]c2ccccc12)C(=O)N[C@H](C(=O)N[C@@H](CCCCN)C(=O)N[C@@H](CCCNC(=N)N)C(=O)NCC(=O)N[C@@H](CC(N)=O)C(=O)N[C@@H](CCCCN)C(=O)O)C(C)C | 3.50 | 8.00 | 45.90 | 0.10 |
| IFWVKRGRK | 4.50 | 20.50 | 29.30 | 0.40 |
| AFIIFWVQR | 0.40 | 0.20 | 15.00 | 0.00 |
| WVKRGRKKL | 1.40 | 13.10 | 4.80 | 28.50 |
| WVKRGSKKL | 3.00 | 1.90 | 11.80 | 56.10 |
| FWVSRGRKK | 1.50 | 2.90 | 6.30 | 0.00 |
| WVQRGAKKL | 3.00 | 2.00 | 3.80 | 11.40 |
| CC(C)C[C@H](NC(=O)[C@H](CCCCN)NC(=O)[C@H](CCCCN)NC(=O)[C@H](CO)NC(=O)CNC(=O)[C@H](CCCNC(=N)N)NC(=O)[C@H](CCC(N)=O)NC(=O)[C@@H](NC(=O)[C@@H](N)Cc1c[nH]c2ccccc12)C(C)C)C(=O)O | 4.40 | 1.20 | 5.90 | – |

Further lines, results first:

| A*02:01 In Vitro Score (HLA-A*02:01) | A*03:01 In Vitro (HLA-A*03:01) | A*11:01 In Vitro Score (HLA-A*11:01) | B*08:01 In Vitro Score (HLA-B*08:01) | Compound |
| --- | --- | --- | --- | --- |
| 2.20 | 2.70 | 18.30 | 0.00 | FWVQRGAKK |
| 1.60 | 3.40 | 5.60 | 19.20 | WVHRGRKKL |
| 5.80 | 18.00 | 72.80 | 0.10 | IIFWVQRGR |
| 5.30 | 26.60 | 19.50 | 0.10 | IIFWVKRGH |
| 2.60 | 4.10 | 27.60 | 0.40 | FWVKRGHKK |
| 22.40 | 4.50 | 16.90 | 0.10 | IIFWVQRGS |
| 1.20 | 0.70 | 5.00 | 0.00 | CC(C)[C@H](NC(=O)[C@@H](N)Cc1c[nH]c2ccccc12)C(=O)N[C@@H](CCC(N)=O)C(=O)N[C@@H](CCCNC(=N)N)C(=O)NCC(=O)N[C@@H](CC(N)=O)C(=O)N[C@@H](CCCCN)C(=O)N[C@@H](CCCCN)C(=O)N[C@@H](CO)C(=O)O |
| 1.40 | – | 1.50 | 0.30 | CC[C@H](C)[C@H](NC(=O)[C@H](Cc1ccccc1)NC(=O)[C@H](C)N)C(=O)N[C@H](C(=O)N[C@@H](Cc1ccccc1)C(=O)N[C@@H](Cc1c[nH]c2ccccc12)C(=O)N[C@H](C(=O)N[C@@H](CCCNC(=N)N)C(=O)N[C@@H](CCCNC(=N)N)C(=O)O)C(C)C)[C@@H](C)CC |
| 5.30 | 0.20 | 3.90 | 0.20 | VAFIIFWVQ |
| 9.60 | 18.60 | 70.60 | 0.30 | CC[C@H](C)[C@H](N)C(=O)N[C@H](C(=O)N[C@@H](Cc1ccccc1)C(=O)N[C@@H](Cc1c[nH]c2ccccc12)C(=O)N[C@H](C(=O)N[C@@H](C)C(=O)N[C@@H](CCCNC(=N)N)C(=O)NCC(=O)N[C@@H](CCCNC(=N)N)C(=O)O)C(C)C)[C@@H](C)CC |
| 1.90 | 1.20 | 0.80 | 0.70 | WVQRGNKKA |
| 1.30 | 39.20 | 39.20 | 0.00 | IFWVSRGRK |
| 9.40 | 2.70 | 25.30 | 6.30 | CC(C)C[C@H](NC(=O)CNC(=O)[C@H](CCCNC(=N)N)NC(=O)[C@H](CCCCN)NC(=O)[C@@H](NC(=O)[C@H](Cc1c[nH]c2ccccc12)NC(=O)[C@@H](N)Cc1ccccc1)C(C)C)C(=O)N[C@@H](CCCCN)C(=O)N[C@@H](CCCCN)C(=O)O |
| 8.40 | 2.80 | 35.20 | 0.40 | CC[C@H](C)[C@H](N)C(=O)N[C@H](C(=O)N[C@@H](Cc1ccccc1)C(=O)N[C@@H](Cc1c[nH]c2ccccc12)C(=O)N[C@H](C(=O)N[C@@H](CC(C)C)C(=O)N[C@@H](CCCNC(=N)N)C(=O)NCC(=O)N[C@@H](CCCNC(=N)N)C(=O)O)C(C)C)[C@@H](C)CC |
| 2.40 | 26.90 | 61.10 | 58.30 | IFWVKRGLK |
| 85.90 | 42.90 | 22.60 | 0.90 | IIFWVKRGA |
| 4.50 | 0.30 | 54.00 | 0.30 | AFIIFWVSR |
| 2.40 | 10.40 | 47.90 | 1.20 | IFWVKRGSK |
| 3.10 | 1.30 | 5.90 | 0.00 | FWVQRGNKK |
| 2.20 | 0.50 | 51.80 | 0.20 | AFIIFWVAR |
| 3.90 | 1.40 | 2.80 | 47.60 | WVKRGHKKL |
